ChEMBL document CHEMBL1149717, “Three New Eudesmane Sesquiterpenes from Pluchea arguta” (J Nat Prod, 1992)
Calls of active or inactive are those of the source.

Key:
Assay type in all cases: functional, organism-based
Klebsiella pneumoniae = test: Antibacterial activity against Klebsiella ozaenae; settings: subsp. ozaenae
Proteus vulgaris = test: Antibacterial activity against Proteus vulgaris
Lactococcus lactis = test: Antibacterial activity against Streptococcus lactis

Measured: Activity

CC(=O)O[C@]1(C)[C@@H]2C=C(C(C)(C)O)C(=O)C[C@@]2(C)CC[C@H]1OC(=O)C(C)(O)C(C)Cl (stereo partly drawn)
active: all assays above
